Entries after “also recorded” stand apart in the source; their conditions may differ.
Experiments:
sil1-1D mutant [1] = test: Hypocotyl length response to GA, sil1-1D mutant; assay type: in vivo, Arabidopsis thaliana; settings: various concentrations of GA, white light, compared to wild-type, FIG. 9
Procedure: (§1) In most cases, these phenomena occur when the plant becomes low in GA response or GA biosynthesis level. Thus, the response of sil1-1D to GA was examined. In this regard, hypocotyl lengths of 15 plantlets were measured after they were grown in ½ Gamborg B5 media (Duchefa) containing 1% sucrose and various concentrations of GA under white light.

[2] = tested on: Arabidopsis thaliana wild-type (Col); test: Hypocotyl length response to GA, wild-type; assay type: in vivo; settings: various concentrations of GA, white light, FIG. 9
Procedure: as §1

sil1-1D mutant [3] = test: Germination efficiency under paclobutrazol treatment, sil1-1D mutant; assay type: in vivo, Arabidopsis thaliana; settings: FIG. 10
Description: (§2) It is generally known that GA is involved in germination as well as hypocotyl growth as shown in Example 5. Hypocotyl growth or adult heights are associated with cell elongation. Typically, GA, auxin and brassinosteroid […] are involved in cell elongation while plant hormones such as GA and ABA are responsible for germination. As for the response to GA, its molecular mechanisms are different for different phenomena. Thus, in order to support the fact that the delayed flowering and/or dwarfism phenotype is attributed to the deficient response of sil1-1D to GA, the wild-type (Col) and sil1-1D were treated with paclobutrazol (PAC), which inhibits the biosynthesis of GA, and their germination efficiencies were compared. […] Generally, when GA biosynthesis was inhibited by PAC, germination efficiency was lowered, with a lowered response to GA.

[4] = tested on: Arabidopsis thaliana wild-type (Col); test: Germination efficiency under paclobutrazol treatment, wild-type; assay type: in vivo; settings: FIG. 10
Description: as §2

## gibberellin [GA]
sil1-1D mutant [1]
  hypocotyl growth: short hypocotyls in response to GA; also recorded: significantly reduced
[2]
  hypocotyl growth: increased with increasing of GA concentration

## CC(C)(C)[C@@H](O)[C@@H](Cc1ccc(Cl)cc1)n1cncn1 (racemic) [PAC, paclobutrazol]
sil1-1D mutant [3]; 0.35 mg/L PAC
  germination: about 50%
sil1-1D mutant [3]; increasing PAC concentration
  germination efficiency: decreased with increasing of PAC concentration
[4]; wild-type (Col), 0.35 mg/L PAC
  germination: ~100%
[4]; wild-type, increasing PAC concentration
  germination efficiency: decreased with increasing of PAC concentration

— patent US20110321198A1, “POLYPEPTIDE HAVING FUNCTION FOR DELAYING ANTHESIS OR SUPPRESSING GROWTH, POLYNUCLEOTIDE ENCODING THE SAME, AND USE THEREOF” (priority 2009, published 2011)
